Data: US20240287062A1, “NAPHTHYRIDONE COMPOUNDS FOR INHIBITION OF RAF KINASES AND/OR BCR-ABL TYROSINE KINASES” (Enliven Inc., priority 2021, published 2024)

Tests used:
Format in all cases: biochemical
Settings in all cases: compound at 100 nM concentration
c-KIT = c-KIT (Homo sapiens (Human), UniProt P10721); experiment: Luminescence-based c-KIT kinase assay (Km ATP), ADP-Glo
Method: Kinase activity of c-KIT was measured using the ADP-Glo system (Promega). Compounds were diluted in DMSO at 100 μM. 20 nL of compound or DMSO only (high control, HC) were added to a 384-well plate (OptiPlate-384, PerkinElmer) using an Echo550 liquid handler (Labcyte). 15 μL of kinase solution (10 mM MgCl2, 0.01% Brij-35, 2 mM DTT, 0.05% BSA, 1 mM EGTA, 50 mM HEPES pH 7.5, and 13.3 nM c-KIT [Carna Biosciences]) were added to each well of the 384-well plate containing the compounds. No enzyme control wells were included (low control, LC). The plate was incubated at room temperature for 30 minutes. 5 μL of a second solution containing 10 mM MgCl2, 0.01% Brij-35, 2 mM DTT, 0.05% BSA, 1 mM EGTA, 50 mM HEPES pH 7.5, 0.8 μg/ml Poly(Glu-Tyr) (Sigma, Cat No 97105-00-5), and 400 μM ATP were added to each well to start the kinase reaction. The plate was incubated for 90 minutes at room temperature. 20 μL of ADP-Glo reagent (Promega) were then added to each well and the plate was incubated for 40 minutes at room temperature. […] During this step, ADP was converted to ATP, a substrate for luciferase, to produce luminescence signal. Luminescence was measured on an Envision plate reader (Perkin Elmer). Luminescence signal positively correlates with kinase activity. The percent inhibition of kinase activity was calculated as follows: percent inhibition=100×(LumHC−LumSample)/(LumHC−LumLC). […]

KDR (VEGFR2) = KDR (VEGFR2) (Homo sapiens (Human), UniProt P35968); experiment: Luminescence-based KDR kinase assay (Km ATP), ADP-Glo
Sequence of KDR (VEGFR2) (P35968 20-1356): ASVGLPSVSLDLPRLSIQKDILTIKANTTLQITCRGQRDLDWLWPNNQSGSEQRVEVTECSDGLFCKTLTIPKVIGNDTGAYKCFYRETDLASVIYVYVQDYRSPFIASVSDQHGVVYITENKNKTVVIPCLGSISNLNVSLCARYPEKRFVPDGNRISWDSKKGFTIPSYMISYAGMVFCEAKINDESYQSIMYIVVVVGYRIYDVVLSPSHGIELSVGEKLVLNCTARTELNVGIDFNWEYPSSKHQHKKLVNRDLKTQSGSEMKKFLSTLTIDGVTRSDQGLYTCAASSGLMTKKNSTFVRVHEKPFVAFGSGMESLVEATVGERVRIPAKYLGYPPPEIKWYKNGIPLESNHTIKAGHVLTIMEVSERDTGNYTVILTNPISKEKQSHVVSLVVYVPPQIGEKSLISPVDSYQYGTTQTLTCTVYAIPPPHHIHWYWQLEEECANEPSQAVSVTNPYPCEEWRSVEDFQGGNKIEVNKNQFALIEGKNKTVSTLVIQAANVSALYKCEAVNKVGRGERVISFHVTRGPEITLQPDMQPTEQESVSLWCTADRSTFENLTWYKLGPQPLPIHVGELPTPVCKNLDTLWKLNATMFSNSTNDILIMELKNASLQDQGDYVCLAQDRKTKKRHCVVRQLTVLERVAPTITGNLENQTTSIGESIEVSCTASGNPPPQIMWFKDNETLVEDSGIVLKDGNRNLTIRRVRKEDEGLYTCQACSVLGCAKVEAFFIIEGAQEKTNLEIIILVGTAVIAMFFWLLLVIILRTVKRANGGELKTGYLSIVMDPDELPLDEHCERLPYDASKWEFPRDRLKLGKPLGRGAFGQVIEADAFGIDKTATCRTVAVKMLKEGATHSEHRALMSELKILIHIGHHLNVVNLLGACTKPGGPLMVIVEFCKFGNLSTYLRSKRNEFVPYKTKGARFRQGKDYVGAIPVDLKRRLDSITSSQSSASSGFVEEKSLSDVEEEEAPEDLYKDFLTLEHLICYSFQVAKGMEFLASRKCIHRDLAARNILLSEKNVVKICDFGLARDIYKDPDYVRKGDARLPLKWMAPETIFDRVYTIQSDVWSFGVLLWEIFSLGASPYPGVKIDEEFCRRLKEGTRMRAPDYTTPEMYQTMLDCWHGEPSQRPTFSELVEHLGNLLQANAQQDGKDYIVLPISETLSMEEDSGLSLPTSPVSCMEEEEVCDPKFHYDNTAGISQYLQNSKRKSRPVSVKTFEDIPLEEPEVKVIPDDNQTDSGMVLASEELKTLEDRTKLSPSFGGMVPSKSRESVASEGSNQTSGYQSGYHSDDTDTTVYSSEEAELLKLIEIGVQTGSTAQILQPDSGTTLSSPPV
Method: (§1) Kinase activity of KDR was measured using the ADP-Glo system (Promega). Compounds were diluted in DMSO at 100 μM. 20 nL of compound or DMSO only (high control, HC) were added to a 384-well plate (OptiPlate-384, PerkinElmer) using an Echo550 liquid handler (Labcyte). 15 μL of kinase solution (10 mM MgCl2, 0.01% Brij-35, 2 mM DTT, 0.05% BSA, 1 mM EGTA, 0.05% CHAPSO, 50 mM HEPES pH 7.5, and 0.665 nM KDR [Carna Biosciences]) were added to each well of the 384-well plate containing the compounds. No enzyme control wells were included (low control, LC). The plate was incubated at room temperature for 30 minutes. 5 μL of a second solution containing 10 mM MgCl2, 0.01% Brij-35, 2 mM DTT, 0.05% BSA, 1 mM EGTA, 50 mM HEPES pH 7.5, 6 μM Peptide 22 (Perkin Elmer, Cat No 760366), and 400 μM ATP were added to each well to start the kinase reaction. The plate was incubated for 90 minutes at room temperature. 20 μL of ADP-Glo reagent (Promega) were then added to each well and the plate was incubated for 40 minutes at room temperature. […] During this step, ADP was converted to ATP, a substrate for luciferase, to produce luminescence signal. Luminescence was measured on an Envision plate reader (Perkin Elmer). Luminescence signal positively correlates with kinase activity. The percent inhibition of kinase activity was calculated as follows: percent inhibition=100×(LumHC−LumSample)/(LumHC−LumLC). […]

SRC = SRC (Homo sapiens (Human), UniProt P12931); experiment: Luminescence-based SRC kinase assay (Km ATP), ADP-Glo
Sequence of SRC (P12931 whole entry): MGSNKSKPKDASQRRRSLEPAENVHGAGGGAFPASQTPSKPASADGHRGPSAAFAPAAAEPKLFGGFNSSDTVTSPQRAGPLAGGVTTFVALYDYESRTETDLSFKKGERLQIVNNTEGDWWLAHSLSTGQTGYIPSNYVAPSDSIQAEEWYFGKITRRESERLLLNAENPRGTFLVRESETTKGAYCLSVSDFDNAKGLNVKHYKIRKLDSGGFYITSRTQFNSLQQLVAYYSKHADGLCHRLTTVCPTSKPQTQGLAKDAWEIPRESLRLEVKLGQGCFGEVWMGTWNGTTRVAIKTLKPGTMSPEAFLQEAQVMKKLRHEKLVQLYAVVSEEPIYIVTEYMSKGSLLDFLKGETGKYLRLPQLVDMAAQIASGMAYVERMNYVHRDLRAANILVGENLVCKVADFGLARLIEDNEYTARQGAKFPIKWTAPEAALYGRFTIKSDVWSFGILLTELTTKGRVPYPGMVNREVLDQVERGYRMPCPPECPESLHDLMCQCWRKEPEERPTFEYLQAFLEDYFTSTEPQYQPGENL
Method: as §1, with “SRC” for “KDR”, “EGTA,” for “EGTA, 0.05% CHAPSO,”, “0.532” for “0.665”, “4” for “22”, “760348),” for “760366),”, “200” for “400”

Sequence of c-KIT (P10721 26-976): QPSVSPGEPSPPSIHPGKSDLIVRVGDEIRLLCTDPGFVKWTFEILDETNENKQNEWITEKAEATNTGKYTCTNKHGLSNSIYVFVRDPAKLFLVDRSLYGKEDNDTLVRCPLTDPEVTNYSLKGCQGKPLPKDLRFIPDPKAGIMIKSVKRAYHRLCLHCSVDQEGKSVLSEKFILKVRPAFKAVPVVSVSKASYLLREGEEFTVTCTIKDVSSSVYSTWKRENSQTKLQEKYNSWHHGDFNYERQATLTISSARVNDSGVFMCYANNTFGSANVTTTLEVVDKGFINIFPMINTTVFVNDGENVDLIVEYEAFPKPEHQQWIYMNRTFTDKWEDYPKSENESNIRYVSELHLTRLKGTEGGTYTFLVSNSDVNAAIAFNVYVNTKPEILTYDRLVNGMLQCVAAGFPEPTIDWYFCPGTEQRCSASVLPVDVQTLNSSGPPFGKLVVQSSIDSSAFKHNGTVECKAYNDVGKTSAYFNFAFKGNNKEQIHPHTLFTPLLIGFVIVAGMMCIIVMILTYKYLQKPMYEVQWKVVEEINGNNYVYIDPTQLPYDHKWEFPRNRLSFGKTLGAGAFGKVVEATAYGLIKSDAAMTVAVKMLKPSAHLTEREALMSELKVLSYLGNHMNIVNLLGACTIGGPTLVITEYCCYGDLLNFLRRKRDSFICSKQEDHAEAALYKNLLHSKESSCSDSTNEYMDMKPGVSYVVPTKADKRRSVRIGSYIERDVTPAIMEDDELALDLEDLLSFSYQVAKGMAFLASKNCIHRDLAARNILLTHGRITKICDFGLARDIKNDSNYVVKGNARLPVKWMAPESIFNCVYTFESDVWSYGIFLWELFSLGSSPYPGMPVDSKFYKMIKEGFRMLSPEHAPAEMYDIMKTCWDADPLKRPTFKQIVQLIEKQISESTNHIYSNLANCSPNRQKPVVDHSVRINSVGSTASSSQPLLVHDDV

Structure (SMILES)	inhibition at 0.1 µM (c-KIT)	inhibition at 0.1 µM (KDR (VEGFR2))	inhibition at 0.1 µM (SRC)
Cc1c(F)cncc1-c1cc2cnc(NC(=O)C3CC3)cc2n(C)c1=O [Compound 2, N-[3-(5-fluoro-4-methylpyridin-3-yl)-1-methyl-2-oxo-1,6-naphthyridin-7-yl]cyclopropanecarboxamide]	17%	32%	77%
Cc1c(F)cncc1-c1cc2cnc(NC(=O)[C@@H]3C[C@@H]3F)cc2n(C)c1=O [Compound 28, (1S,2S)-2-fluoro-N-[3-(5-fluoro-4-methylpyridin-3-yl)-1-methyl-2-oxo-1,6-naphthyridin-7-yl]cyclopropane-1-carboxamide]	7.3%	27%	48%
